Measurements taken from ChEMBL document CHEMBL1153753, “Structure-activity relationships and mechanism of action of antitumor bis 8-hydroxyquinoline substituted benzylamines” (Eur J Med Chem, 2010).

Legend:
[1] = Disregulation of cell cycle related gene expression in human U87 cells assessed as change in CDC25A mRNA level at 0.5 uM after 16 hrs by microarray analysis relative to untreated control; assay type: functional, cell-based; conditions: U-87MG ATCC
[2] = Disregulation of cell cycle related gene expression in human U87 cells assessed as change in cyclin F mRNA level at 0.5 uM after 16 hrs by microarray analysis relative to untreated control; assay type: functional, cell-based; conditions: U-87MG ATCC
[3] = Disregulation of DNA-damage and oxidative stress responsive gene expression in human U87 cells assessed as change in DDIT4 mRNA level at 0.5 uM after 16 hrs by microarray analysis relative to untreated control; assay type: functional, U-87MG ATCC
[4] = Disregulation of cell survival related gene expression in human U87 cells assessed as change in FGF2 mRNA level at 0.5 uM after 16 hrs by microarray analysis relative to untreated control; assay type: functional, cell-based; conditions: U-87MG ATCC
[5] = Disregulation of DNA-damage and oxidative stress responsive gene expression in human U87 cells assessed as change in SESN2 mRNA level at 0.5 uM after 3 hrs by microarray analysis relative to untreated control; assay type: functional, U-87MG ATCC
[6] = Disregulation of cell development related gene expression in human U87 cells assessed as change in PRPX1 mRNA level at 0.5 uM after 16 hrs by microarray analysis relative to untreated control; assay type: functional, cell-based; conditions: U-87MG ATCC
[7] = Disregulation of cell cycle related gene expression in human U87 cells assessed as change in CDC6 mRNA level at 0.5 uM after 16 hrs by microarray analysis relative to untreated control; assay type: functional, cell-based; conditions: U-87MG ATCC
[8] = Disregulation of cell survival related gene expression in human U87 cells assessed as change in FGF18 mRNA level at 0.5 uM after 16 hrs by microarray analysis relative to untreated control; assay type: functional, cell-based; conditions: U-87MG ATCC
[9] = Disregulation of cell cycle related gene expression in human U87 cells assessed as change in cyclin E2 mRNA level at 0.5 uM after 16 hrs by microarray analysis relative to untreated control; assay type: functional, cell-based; conditions: U-87MG ATCC

Cc1ccc(CN(Cc2ccc(O)c3ncccc23)Cc2ccc(O)c3ncccc23)cc1
fold change (FC) [1]: 3 | fold change (FC) [2]: 3 | fold change (FC) [3]: 3 | fold change (FC) [4]: 3 | fold change (FC) [5]: >1.4 | fold change (FC) [6]: 3 | fold change (FC) [7]: 3 | fold change (FC) [8]: 3 | fold change (FC) [9]: 3
